Data: patent publication US20130324545A1, “METHODS FOR THE REGULATION OF THE PROSTAGLANDIN F SYNTHASE (PGFS) ACTIVITY OF AKR1B1 AND USES THEREOF” (UNIVERSITE LAVAL, priority 2007, published 2013)
Where two headings read alike, the source gives them in different places.

Tests used:
[1] = tested on: human endometrial stromal (HIESC) cells; assay: PGF2α and PGE2 production and enzyme expression in endometrial stromal HIESC cells stimulated with IL-1β (ELISA, Western blot); type: cell-based; conditions: for PGE2 production in presence of PG receptor antagonist: IL-1β-stimulated stromal HIESC; for IC50: Homo sapiens, stromal HIESC cells stimulated by IL-1β, ELISA, range in brackets
[2] = tested on: human endometrial epithelial (HIEEC) cells; assay: PGF2α and PGE2 production and enzyme expression in endometrial epithelial HIEEC cells stimulated with IL-1β (ELISA, Western blot); type: cell-based; conditions: for IC50: Homo sapiens; for PGF2α production / expression of PGF2α biosynthetic enzymes (AKR1B1, COX-1, COX-2): increasing doses of cytokine, HIEEC
Description: (§1) Western blot analysis was performed with approximately 20 μg total proteins from cultured cells on a 10% SDS-PAGE gel, followed by electro-transfer onto nitrocellulose membrane. The primary antibodies used for the present study were rabbit AKR1B1 (dilution 1:1000) and COX-2 (dilution 1:10 000) anti-sera and goat AKR1C3 (dilution 1:500) anti-serum. A β-actin monoclonal antibody (1:5000, Sigma, Mississauga, Ontario, Canada) was used as an internal control. Goat anti-rabbit IgG conjugated with horseradish peroxidase (HRP) (Jackson Immunoresearch Laboratories, West Grove, Pa., USA), rabbit anti-goat IgG HRP and goat anti-mouse IgG HRP were used as secondary antibodies. Chemiluminescence was analyzed with autoradiography films at optimal times of exposure following treatment of the membranes with Renaissance™ reagent (NEN Life Science Products, Boston, Mass., USA).
(§2) For cell culture transfection, immortalized human endometrial stromal cells (HIESC-2) and epithelial cells(HIEEC-22) were cultured in RPMI 1640 without phenol red, containing 50 IU penicillin-streptomycin supplemented with 10% whole fetal bovine serum (FBS). Ten percent dextran-coated charcoal-extracted FBS was used once cells have reached confluency. Knock-down and knock-in transfections of cells with AKR1B1 specific siRNA, AKR1B1 or AKRIC3 cDNAs in pCR3.1 expression vectors were performed with Lipofectamine™ 2000 for 4 hours in culture medium without antibiotic. Thirty-six hours after transfection (24 hours for siRNA transfection), cells were treated for 24 hours with recombinant human interleukin 1β (IL-1β) (1 ng/ml) (R&D Systems, Minneapolis, Minn., USA) or arachidonic acid (AA) 10 μM in RPMI 1640 medium without serum. At the end of the treatment period, the culture medium was recovered and stored at −20° C. until evaluation for PGF2α production.
(§3) Enzymatic immunoassay (EIA) was performed with an acetylcholinesterase-linked PGF2α tracer (Cayman) as described previously (Asselin et al., Biol Reprod 54(2); 371-9, 1996). Sheep anti-PGF2α (Bio-Quant, Ann Arbor, Mich., USA) was used as the selective antibody. Inter-assay and intra-assay coefficients of variations (n=12) were of 16% and 10% respectively. Statistical analysis was performed using ANOVA with Statview™ software (Abacus Concept, Calif.). Values were considered statistically significant for p<0.05.

AKR1B1 = molecular target: T1, AKR1B1 (Homo sapiens, UniProt P15121); assay: Effect of ASA / COX inhibitors on AKR1B1 expression and PGF synthase activity in cells expressing AKR1B1; type: cell-based
T1 construct: endogenous in cells; host or cells: 'our cellular model'
Description: as §1

macrophages = macrophages treated with endotoxines or lipopolysaccharides; cited from earlier work
[3] = diabetic subjects having neuropathies; cited from earlier work
[4] = tested on: human endometrial stromal (HIESC) cells; assay: PGF2α and PGE2 production and enzyme expression in endometrial stromal HIESC cells stimulated with IL-1β (ELISA, Western blot); type: cell-based; conditions: increasing doses of cytokine
Description: as §1, §2, §3

[5] = tested on: primary human umbilical vein endothelial cells (HUVEC); assay: Effect of IL-1β and TNF-α on PGF2α, COX-2 and AKR1B1 in primary HUVEC; type: cell-based; conditions: for PGF2α production: ELISA; for COX-2 protein expression: endogenous AKR1B1 levels already high
Source text: FIG. 22 comprises FIGS. 22A and 22B, with FIG. 22A illustrating the effect of IL-1β and TNF-α on the production of PGF2α by primary human umbilical vein endothelial cells (HUVEC), as measured by ELISA; and FIG. 22B illustrating the effect of IL-1β and TNF-α on the protein expression of COX-2 and AKR1B1 in primary HUVEC.

[6] = tested on: primary human umbilical artery smooth muscle cells (HUASMC); assay: Effect of IL-1β on PGF2α, COX-2 and AKR1B1 in primary HUASMC; type: cell-based
Source text: FIG. 20 comprises FIGS. 20A and 20B, with FIG. 20A illustrating the effect of IL-1β on the production of PGF2α by primary human umbilical artery smooth muscle cells (HUASMC), as measured by ELISA; and FIG. 20B illustrating the effect of IL-1β on the protein expression of COX-2 and AKR1B1 in primary HUASMC.

[7] = tested on: human primary cardiomyocytes; assay: Effect of IL-1β and TNF-α on PGF2α, COX-2 and AKR1B1 in human primary cardiomyocytes (ELISA, Western blot); type: cell-based; conditions: for PGF2α production: FIG. 19, ELISA; for AKR1B1 and COX-2 protein expression: FIG. 19, Western blot
Source text: FIG. 19 comprises FIG. 19A, 19B, 19C and 19D, and illustrates the effect of IL-1β and TNF-α on the production of PGF2α (A), COX-2 (B) and AKR1B1 (C) by human primary cardiomyocytes, as measured by ELISA and Western blot. FIG. 19D illustrates β-actin levels of the three cells groups.

[8] = tested on: primary human umbilical vein smooth muscle cells (HUVSMC); assay: Effect of IL-1β on PGF2α, COX-2 and AKR1B1 in primary HUVSMC; type: cell-based
Source text: FIG. 21 comprises FIGS. 21A and 21B, with FIG. 21A illustrating the effect of IL-1β on the production of PGF2α by primary human umbilical vein smooth muscle cells (HUVSMC), as measured by ELISA; and FIG. 21B illustrating the effect of IL-1β on the protein expression of COX-2 and AKR1B1 in primary HUVSMC.

[9] = read-out: IC50 PGF2α production
[10] = HIEEC cells stimulated by IL-1β, ELISA, range in brackets, read-out: IC50 PGE2 production
[11] = HIEEC cells treated with IL-1β, ELISA, range in brackets, read-out: IC50 PGF2α production

In the case of `O=C(O)CCC/C=C\C[C@@H]1[C@@H](/C=C/[C@H](O)C2Cc3ccccc3C2)[C@@H](F)C[C@@H]1O` [AL8810], the “PGE2 production in presence of PG receptor antagonist” value (from here on “PGE2 production in presence”) [1] is reported as “induced a reduction in PGE2 production”, the “PGE2 production in presence” value ([1]; listed as AL 8810) is reported as “reduced PGE2 production” and the “PGE2 production in presence” value ([2]; IL-1β-stimulated epithelial HIEEC) is reported as “induced a reduction in PGE2 production”.

With `CC(=O)Oc1ccccc1C(=O)O` [Aspirin, acetylsalicylic acid] the AKR1B1 gene expression (AKR1B1) was “blocks”, the “inhibition of AKR1B1 protein” value (AKR1B1; 1-5 mM, cellular model) was “dose-dependent inhibition” and the PGF synthase activity (AKR1B1; cells expressing AKR1B1) was “strongly reduced”. For the same compound, the “protein expression level of AKR1B1” value (AKR1B1; cells expressing AKR1B1) was “strongly reduced” and the IC50 [2, 9] was 1940 nM.

In the case of `CS(=O)(=O)Nc1ccc([N+](=O)[O-])cc1OC1CCCCC1` [NS-398], the “inhibition of PGF2α production” value ([2]; COX-1-expressing HIEEC, IL-1β) is reported as “did not completely inhibited”.

In the case of `O=C1NC(=O)[C@@]2(CCOc3ccc(F)cc32)N1` [Sorbinil™], the “production levels of PGE2” value (macrophages) is given as “capable to reduce”.

For `O=C(O)Cc1nn(Cc2ccc(Br)cc2F)c(=O)c2ccccc12` [Statil™], the side-effects [3] is given as “undesirable hepatic side-effects”.

For `COc1ccc2c(C(=S)N(C)CC(=O)O)cccc2c1C(F)(F)F` [Tolrestat™], the “production levels of PGE2” value (macrophages) is listed as “capable to reduce” and the side-effects [3] is listed as “undesirable hepatic side-effects”.

For `O=C(O)Cc1nn(Cc2nc3cc(C(F)(F)F)ccc3s2)c(=O)c2ccccc12` [Zopolrestat™], the “production levels of PGE2” value (macrophages) is given as “capable to reduce” and the side-effects [3] is given as “undesirable hepatic side-effects”.

For `COc1ccc2cc([C@H](C)C(=O)O)ccc2c1` [naproxen], the IC50 ([1]; read-out: IC50 PGE2 production) was 62.6 nM, the IC50 [1, 9] was 43.8 nM and the “inhibition of PGF2α versus PGE2 production, comparison of IC50” value ([1]; endometrial stromal cells (only express COX-2)) was “comparable IC50”. For the same compound, the “potency for inhibition of PGF2α production compared with Aspirin” value ([2]; HIEEC cells stimulated by IL-1β) was “more potent than Aspirin™”, the IC50 [2, 10] was 142 nM and the IC50 [2, 11] was 4.62 nM. The PGF2α/PGE2 ratio ([2]; at 10 nM) was “strong alteration of the PGF2α/PGE2 ratio in favor of PGE2” and the “inhibits PGF2α more efficiently than PGE2” value ([2]; endometrial epithelial cells (express COX-1 and COX-2)) was 100 times.

In the case of `CS(=O)(=O)c1ccc(C2=C(c3ccccc3)C(=O)OC2)cc1` [rofecoxib], the AKR1B1 gene expression (AKR1B1) is reported as “do not influence”, the “inhibits production of PGE2 more efficiently than production of PGF2α” value ([2]; HIEEC cells stimulated with IL-1β) is reported as “ten times more efficiently” and the IC50 [2, 10] is reported as 51.7 nM. For the same compound, the IC50 [2, 11] was 201 nM and the PGF2α/PGE2 ratio ([2]; at 10 μM) was “strong alteration of the PGF2α/PGE2 ratio in favor of PGF2α”.

In the case of IL-1β: recombinant human interleukin 1β, the PGF2α production [4] is reported as “increase in PGF2α production”, the “expression of PGF2α biosynthetic enzymes (AKR1B1, COX-1, COX-2)” value (“expression of PGF2α biosynthetic enzymes” below) [4] is reported as “only of COX-2” and the “AKR1C3 protein expression level” value ([2]; HIEEC-22, 1 ng/ml, Western blot) is reported as “no effect”. The PGF2α production [2] was “increase in PGF2α production”, the “expression of PGF2α biosynthetic enzymes” value [2] was “significant increase in expression of AKR1B1, COX-1 and COX-2” and the PGF2α production [5] was “stimulated”. For the same compound, the COX-2 protein expression [5] was “stimulated”, the “AKR1B1 and COX-2 protein expression” value [6] was “stimulated” and the PGF2α production ([6]; ELISA) was “stimulated”. For the same compound, the PGF2α production [7] was “stimulated”, the “AKR1B1 and COX-2 protein expression” value [7] was “stimulated” and the “AKR1B1 and COX-2 protein expression” value [8] was “stimulated”. The PGF2α production ([8]; ELISA) was “stimulated”.

In the case of TNF-α, the PGF2α production [4] is reported as “increase in PGF2α production”, the “expression of PGF2α biosynthetic enzymes” value [4] is reported as “significant increase in expression of AKR1B1, COX-1 and COX-2” and the PGF2α production [2] is reported as “increase in PGF2α production”. For the same compound, the “expression of PGF2α biosynthetic enzymes” value [2] was “significant increase in expression of AKR1B1, COX-1 and COX-2”, the PGF2α production [5] was “stimulated” and the COX-2 protein expression [5] was “stimulated”. For the same compound, the PGF2α production [7] was “stimulated” and the “AKR1B1 and COX-2 protein expression” value [7] was “stimulated”.
